In ChEMBL document CHEMBL3992552, “Mechanisms of action and structure-activity relationships of cytotoxic flavokawain derivatives” (Bioorg Med Chem, 2017):
pIC50: −log10 of the molar value. Activity calls are given as the source filed them. No cut-off for these calls is given here.

Key:
HCT-116 [1] = test: Induction of apoptosis in human HCT116 cells harboring wild-type p53 assessed as upregulation of cyclinB1 measured after 48 hrs by Hoechst staining based assay; format: functional, cell-based
MDA-MB-231 [2] = test: Induction of apoptosis in human MDA-MB-231 cells harboring p53 mutant assessed as upregulation of cyclinB1 after 18 hrs by Hoechst staining based assay; format: functional, cell-based
Huh-7 [3] = test: Cytotoxicity against human HuH7 cells assessed as cell viability after 48 hrs by Hoechst 33342 staining based assay; format: functional; conditions: Huh-7, 48 h
Huh-7 [4] = test: Cell cycle arrest in human HuH7 cells assessed as accumulation at S phase at 25 uM measured after 48 hrs by Hoechst/BrdU staining based fluorescence assay (reference value: 44%); format: functional
NCI-H727 [5] = test: Cell cycle arrest in human NCI-H727 cells harboring p53 mutant assessed as mitotic index at 10 uM measured after 48 hrs by Hoechst staining based fluorescence assay (reference value: 1.1); format: functional
NCI-H727 [6] = test: Cell cycle arrest in human NCI-H727 cells harboring p53 mutant assessed as mitotic index at 25 uM measured after 48 hrs by Hoechst staining based fluorescence assay (reference value: 1.1); format: functional
Caco-2 [7] = test: Cytotoxicity against human Caco2 cells assessed as cell viability after 48 hrs by Hoechst 33342 staining based assay; format: functional; conditions: Caco-2, 48 h
RL = test: Cytotoxicity against human RL assessed as cell viability after 48 hrs by Hoechst 33342 staining based assay; format: functional
HCT-116 [8] = test: Cell cycle arrest in human HCT116 cells harboring wild-type p53 assessed as accumulation at S phase at 10 uM measured after 48 hrs by Hoechst/BrdU staining based fluorescence assay (reference value: 68.4%); format: functional
[9] = Selectivity index, ratio of IC50 for human fibroblasts to IC50 for human PC3 cells
HCT-116 [10] = test: Induction of apoptosis in human HCT116 cells harboring wild-type p53 assessed as increase in early apoptosis at 2 times IC50 after 48 hrs by YoPro/propidium iodide/Hoechst staining based assay; format: functional, cell-based
HCT-116 [11] = test: Cell cycle arrest in human HCT116 cells harboring wild-type p53 assessed as accumulation at S phase at 25 uM measured after 48 hrs by Hoechst/BrdU staining based fluorescence assay (reference value: 68.4%); format: functional
[12] = Selectivity index, ratio of IC50 for human fibroblasts to IC50 for human Caco2 cells
Huh-7 [13] = test: Cell cycle arrest in human HuH7 cells assessed as mitotic index at 25 uM measured after 48 hrs by Hoechst staining based fluorescence assay (reference value: 2.2); format: functional
HCT-116 [14] = test: Cell cycle arrest in human HCT116 cells harboring wild-type p53 assessed as mitotic index at 10 uM measured after 48 hrs by Hoechst staining based fluorescence assay (reference value: 2.3); format: functional
PC-3 [15] = test: Cytotoxicity against human PC3 cells assessed as cell survival at 50 uM after 48 hrs by Hoechst 33342 staining based assay relative to control; format: functional; conditions: PC-3, 48 h, read-out: Survival
MDA-MB-231 [16] = test: Cell cycle arrest in human MDA-MB-231 cells assessed as accumulation at M phase by Hoechst staining based fluorescence assay; format: functional
HaCaT [17] = test: Cytotoxicity against human HaCaT cells assessed as cell viability after 48 hrs by Hoechst 33342 staining based assay; format: functional
MCF7 [18] = test: Cytotoxicity against human MCF7 assessed as cell viability after 48 hrs by Hoechst 33342 staining based assay; format: functional; conditions: MCF7, 48 h
NCI-H727 [19] = test: Cell cycle arrest in human NCI-H727 cells harboring p53 mutant assessed as accumulation at S phase at 10 uM measured after 48 hrs by Hoechst/BrdU staining based fluorescence assay (reference value: 40.3%); format: functional
PC-3 [20] = test: Induction of apoptosis in human PC3 cells harboring p53 mutant assessed as upregulation of cyclinB1 after 48 hrs by Hoechst staining based assay; format: functional, cell-based
Caco-2 [21] = test: Cell cycle arrest in human Caco2 cells assessed as accumulation at M phase by Hoechst staining based fluorescence assay; format: functional
MDA-MB-231 [22] = test: Cell cycle arrest in human MDA-MB-231 cells harboring p53 mutant assessed as accumulation at S phase at 10 uM measured after 48 hrs by Hoechst/BrdU staining based fluorescence assay (reference value: 42.2%); format: functional
Caco-2 [23] = test: Cytotoxicity against human Caco2 cells assessed as cell survival at 50 uM after 48 hrs by Hoechst 33342 staining based assay relative to control; format: functional; conditions: Caco-2, 48 h, read-out: Survival
NCI-H727 [24] = test: Cell cycle arrest in human NCI-H727 cells harboring p53 mutant assessed as accumulation at S phase at 25 uM measured after 48 hrs by Hoechst/BrdU staining based fluorescence assay (reference value: 40.3%); format: functional
PC-3 [25] = test: Induction of apoptosis in human PC3 cells harboring p53 mutant assessed as increase in late apoptosis at 2 times IC50 after 48 hrs by YoPro/propidium iodide/Hoechst staining based assay; format: functional, cell-based
MDA-MB-231 [26] = test: Cytotoxicity against human MDA-MB-231 cells assessed as cell survival at 50 uM after 48 hrs by Hoechst 33342 staining based assay relative to control; format: functional; conditions: MDA-MB-231, 48 h, read-out: Survival
MDA-MB-231 [27] = test: Cytotoxicity against human MDA-MB-231 cells assessed as cell viability after 48 hrs by Hoechst 33342 staining based assay; format: functional; conditions: MDA-MB-231, 48 h
Caco-2 [28] = test: Cell cycle arrest in human Caco2 cells assessed as mitotic index at 25 uM measured after 48 hrs by Hoechst staining based fluorescence assay (reference value: 3.6); format: functional
MDA-MB-231 [29] = test: Induction of apoptosis in human MDA-MB-231 cells harboring p53 mutant assessed as increase in late apoptosis at 2 times IC50 after 24 hrs by YoPro/propidium iodide/Hoechst staining based assay; format: functional, cell-based
PC-3 [30] = test: Induction of apoptosis in human PC3 cells harboring p53 mutant assessed as increase in early apoptosis at 2 times IC50 after 48 hrs by YoPro/propidium iodide/Hoechst staining based assay; format: functional, cell-based
Fibroblast = test: Cytotoxicity against human fibroblasts assessed as cell viability after 48 hrs by Hoechst 33342 staining based assay
PC-3 [31] = test: Cell cycle arrest in human PC3 cells harboring p53 mutant assessed as mitotic index at 25 uM measured after 48 hrs by Hoechst staining based fluorescence assay (reference value: 2.5); format: functional
HaCaT [32] = test: Cell cycle arrest in human HaCaT cells assessed as accumulation at M phase by Hoechst staining based fluorescence assay; format: functional
MCF7 [33] = test: Induction of apoptosis in human MCF7 cells harboring wild-type p53 assessed as increase in early apoptosis at 2 times IC50 after 24 hrs by YoPro/propidium iodide/Hoechst staining based assay; format: functional, cell-based
[34] = Selectivity index, ratio of IC50 for human fibroblasts to IC50 for human MCF7 cells
PC-3 [35] = test: Cell cycle arrest in human PC3 cells harboring p53 mutant assessed as accumulation at S phase at 10 uM measured after 48 hrs by Hoechst/BrdU staining based fluorescence assay (reference value: 40.8%); format: functional
[36] = Cytotoxicity against human fibroblasts assessed as cell survival at 50 uM after 48 hrs by Hoechst 33342 staining based assay relative to control; parameters: species or system Fibroblast; conditions: read-out: Survival

SMILES	Activity (HCT-116 [1])	Activity (MDA-MB-231 [2])	pIC50 (Huh-7 [3])	Activity (Huh-7 [4])	Activity_index (NCI-H727 [5])	Activity_index (NCI-H727 [6])	pIC50 (Caco-2 [7])	pIC50 (RL)	Activity (HCT-116 [8])	Ratio IC50 [9]	Activity (HCT-116 [10])	Activity (HCT-116 [11])	Ratio IC50 [12]	Activity_index (Huh-7 [13])	Activity_index (HCT-116 [14])	viability at 50 µM (PC-3 [15])	Activity (MDA-MB-231 [16])	pIC50 (HaCaT [17])	pIC50 (MCF7 [18])	Activity (NCI-H727 [19])	also measured
COc1cc(OC)c(C(=O)/C=C/c2ccccc2SC)c(OC)c1	Active	Active	4.85	0.3%	1	0	5.06	5.08	25%	4.2	Active	0.5%	3.6	0.4	0.6	30%	Active	5.11	5.03	35%	Activity (PC-3 [20]): Active; Activity (Caco-2 [21]): Active; Activity (MDA-MB-231 [22]): 48%; viability at 50 µM (Caco-2 [23]): 17%; Activity (NCI-H727 [24]): 3%; Activity (PC-3 [25]): Active; viability at 50 µM (MDA-MB-231 [26]): 36%; pIC50 (MDA-MB-231 [27]): 5.00; Activity_index (Caco-2 [28]): 4.2; Activity (MDA-MB-231 [29]): Active; Activity (PC-3 [30]): Active; pIC50 (Fibroblast): < 4.70; Activity_index (PC-3 [31]): 0.3; Activity (HaCaT [32]): Active; Activity (MCF7 [33]): Active; Ratio IC50 [34]: 3.4; Activity (PC-3 [35]): 30%; viability at 48 h, 50 µM [36]: 74%
COc1cc(OC)c(C(=O)/C=C/c2ccc(F)cc2)c(OC)c1	Active	Active	4.84	1.1%	1.1	0.4	5.26	5.19	23%	>9.1	Active	0.7%	>9.1	1.3	1.3	26%	Active	5.12	5.11	31%	Activity (PC-3 [20]): Active; Activity (Caco-2 [21]): Active; Activity (MDA-MB-231 [22]): 43%; viability at 50 µM (Caco-2 [23]): 3%; Activity (NCI-H727 [24]): 4.5%; Activity (PC-3 [25]): Active; viability at 50 µM (MDA-MB-231 [26]): 12%; pIC50 (MDA-MB-231 [27]): 4.97; Activity_index (Caco-2 [28]): 4.2; Activity (MDA-MB-231 [29]): Active; Activity (PC-3 [30]): Active; pIC50 (Fibroblast): < 4.70; Activity_index (PC-3 [31]): 0.4; Activity (HaCaT [32]): Active; Activity (MCF7 [33]): Active; Ratio IC50 [34]: >6.5; Activity (PC-3 [35]): 27%; viability at 48 h, 50 µM [36]: 78%
